Patent publication US20200237738A1, “PHARMACEUTCAL COMPOSITION FOR PREVENTING OR TREATING CANCER, CONTAINING STREPTONIGRIN AND RAPAMYCIN AS ACTIVE INGREDIENTS” (MD BIOLAB CO., LTD., priority 2017, published 2020)

What was measured:
[1] = tested on: renal cancer cell line (ACHN cells and CAKI-1 cells); experiment: Trypan blue live cell count, renal cancer cell line (cell line not distinguished); format: cell-based; conditions: 48 h, read-out: cell viability relative to untreated control
Method: Specifically, after ACHN cells which are a renal cancer cell (RCC) line and CAKI-1 cells (provided by the National Cancer Center, Korea) were each inoculated into an RPM1640 medium containing 10% FBS and cultured, and then further cultured for 48 hours after being treated with 10 nM rapamycin and/or 10 nM streptonigrin in combination or alone. After the culture, cells were stained by treating respective cells with 0.4% trypan blue, and live and dead cells were sorted and counted. For the number of counted cells, the ratio of the number of relative live cells was calculated based on the number of live cells of an untreated control which had not been treated with rapamycin and streptonigrin.
Specifically, the relative ratio of the number of live cells was calculated in the same manner as in Example <2-1>, using 5 μM of pazopanib and 2 nM of streptonigrin.

[2] = tested on: CAKI-1 renal cancer cell line xenograft; experiment: CD31 immunohistochemistry of tumors in CAKI-1 xenograft mouse model; format: in vivo, mice
Method: Specifically, a mouse model was prepared by xenografting mice with a CAKI-1 cell line which is a renal cancer cell line. And then, the formation of a tumor was observed after administering streptonigrin to the mouse model at a dose of 0.1 mg/kg or 0.2 mg/kg, and breeding the mice. After the xenografting, a biopsy tissue sample was obtained by excising tumor sites, and the level of expression of CD31-positive cells, which are a blood vessel specific marker, was confirmed by immunohistochemically staining the sample.

[3] = tested on: human umbilical vein endothelial cells (HUVECs); experiment: Angiogenesis analysis (tube segments on Matrigel) in HUVECs; format: cell-based; conditions: compared to siCTL control
Method: At the same time, an angiogenesis analysis was also performed. Cells were allowed to adhere to the well surface and cultured by inoculating HUVEC cells into Matrigel-coated wells. Cells were further cultured by adding VEGF and each siRNA to the medium, and then tube segments formed were counted using an angiogenesis assay kit.

[4] = tested on: human umbilical vein endothelial cells (HUVECs); experiment: Migration of HUVECs; format: cell-based; conditions: compared to siCTL control
[5] = tested on: human umbilical vein endothelial cells (HUVECs); experiment: BrdUrd labeling assay (proliferation) in HUVECs; format: cell-based; conditions: compared to siCTL control
Method: Specifically, human umbilical vein endothelial cells (HUVECs) were inoculated into a medium and cultured, and then further cultured after the medium was treated with siRNA of siCTL or siTGase2 (siTG2) and VEGF as a vascular growth promoting factor. After cells treated with the siRNA and VEGF were cultured, the medium was again treated with bromodeoxyuridine (BudUrd), a BrdUrd labeling assay was performed. For quantification, BrdUrd-positive cells were counted among the cells grown on the medium. For the counted cells, the number of BrdUrd-positive cells in the siCTL-treated and VEGF-untreated groups was used as a reference, and the number of BrdUrd cells in each experimental group was obtained as a relative percentage.

Compound	viability at 0.01 µM [1]	number of CD31-positive cells with increasing dose ([2]; streptonigrin 0.1 mg/kg or 0.2 mg/kg)	level of CD31-positive cells relative to control ([2]; streptonigrin 0.2 mg/kg, tumor biopsy)	angiogenesis degree (tube formation) [3]	migration of cells [4]	proliferation of cells (BrdUrd-positive cells) [5]
CO[C@H]1C[C@@H]2CC[C@@H](C)[C@@](O)(O2)C(=O)C(=O)N2CCCC[C@H]2C(=O)O[C@H]([C@H](C)C[C@@H]2CC[C@@H](O)[C@H](OC)C2)CC(=O)[C@H](C)/C=C(\C)[C@@H](O)[C@@H](OC)C(=O)[C@H](C)C[C@H](C)/C=C/C=C/C=C/1C [rapamycin]	≥ 90%					
COC1=C(N)C(=O)c2nc(-c3nc(C(=O)O)c(C)c(-c4ccc(OC)c(OC)c4O)c3N)ccc2C1=O [streptonigrin]	≥ 65%	decreased	about 20%			
VEGF				sharply increased	sharply increased	sharply increased
